This note sets out measurements from ChEMBL document CHEMBL1201862, “PubChem BioAssay data set” (2004).

Some test systems named below: A549; ACHN; CAKI-1; CCRF-CEM; HCC 2998; HL-60; HOP-62; HOP-92; K562; KM-20L2; LOX IMVI; MOLT-4; OVCAR-3; OVCAR-4; OVCAR-5; OVCAR-8; RXF 393; SF-295; SK-MEL-28; UACC-62.
What all share (assay): inhibition of tumour cell growth, NCI panel, 48 h

SMILES strings stand for the structures.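 Results reflect a 48-hour exposure of cells in 96-well plates to compound at five concentrations. GI50 = concentration required for 50% inhibition of growth.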 Calls of active or inactive are those of the source. No stated cut-off is given here; in the data, active = GI50 up to about 1.1 µM and inactive = higher.

Consider `CC1(C)C(O)C[C@@H](O)[C@@]2(C)C1CC[C@]1(C)C2C[C@@H](O)[C@@H]2C([C@@]3(C)CC[C@@H](C(C)(C)O)O3)CCC21C` (stereo not given in full), for which the GI50 was 18.9 µM (inactive) in the assay on A549; 19.1 µM (inactive) with ACHN; 18.3 µM (inactive) in the assay on CAKI-1; 17.8 µM (inactive) with CCRF-CEM; 17.5 µM (inactive) in the assay on HCC 2998; 14.2 µM (inactive) with HL-60. Moreover, the GI50 was 16.6 µM (inactive) with HOP-62; 9.68 µM (inactive) in the assay with HOP-92; 35.2 µM (inactive) in the assay with K562; 17.5 µM (inactive) in the assay with KM-20L2; 11 µM (inactive) in the assay with LOX IMVI; 22 µM (inactive) in the assay on MOLT-4. For the same compound, the GI50 with OVCAR-3 is 15.7 µM (inactive); with OVCAR-4, 22.4 µM (inactive); in the assay on OVCAR-5, 16.1 µM (inactive); in the assay with OVCAR-8, 18.7 µM (inactive); with RXF 393 it was 13.4 µM (inactive); in the assay with SF-295, 15.7 µM (inactive). The GI50 in the assay on SK-MEL-28 was 13.8 µM (inactive); in the assay on UACC-62 it was 9.93 µM (inactive).
As for `CCCCOc1ccc(OCCCCCCCCCC[N+](C)(C)C)cc1`, the GI50 is 3.55 µM (inactive) in the assay with A549; 3.73 µM (inactive) in the assay on CAKI-1; 1.28 µM (inactive) in the assay with CCRF-CEM; 1.95 µM (inactive) in the assay on HCC 2998; 0.39 µM (active) in the assay on HL-60; 3.62 µM (inactive) in the assay with HOP-62. In addition, the GI50 was 1.33 µM (inactive) in the assay with HOP-92; 2.74 µM (inactive) with K562; 0.682 µM (active) in the assay with KM-20L2; 1.53 µM (inactive) in the assay with LOX IMVI; 1.38 µM (inactive) in the assay on MOLT-4; 2.1 µM (inactive) in the assay with OVCAR-3. The GI50 in the assay with OVCAR-4 was 2.86 µM (inactive); with OVCAR-5, 4.65 µM (inactive); with OVCAR-8, 3.66 µM (inactive); in the assay on RXF 393, 0.796 µM (active); in the assay on SF-295, 6.17 µM (inactive); in the assay on SK-MEL-28, 5.58 µM (inactive). The GI50 in the assay with UACC-62 is 4.06 µM (inactive).
For `N=C(N)Nc1ncccc1[N+](=O)[O-]`, the GI50 was > 100 µM (inactive) in the assay with A549; > 100 µM (inactive) in the assay on CAKI-1; > 100 µM (inactive) with CCRF-CEM; 55.2 µM (inactive) in the assay with HCC 2998; 19.7 µM (inactive) in the assay on HL-60; > 100 µM (inactive) in the assay on HOP-62. Besides, the GI50 was > 100 µM (inactive) in the assay with HOP-92; > 100 µM (inactive) in the assay on K562; 25.4 µM (inactive) in the assay on KM-20L2; 33.1 µM (inactive) with LOX IMVI; > 100 µM (inactive) with MOLT-4; 25.1 µM (inactive) in the assay on OVCAR-3. In addition, the GI50 was > 100 µM (inactive) with OVCAR-4; > 100 µM (inactive) with OVCAR-5; > 88.3 µM (inactive) in the assay with OVCAR-8; > 100 µM (inactive) in the assay on RXF 393; > 100 µM (inactive) in the assay with SF-295; > 100 µM (inactive) in the assay on SK-MEL-28. Also, in the assay on UACC-62, the GI50 is > 100 µM (inactive).
As for `CCCCCCCCCCOC(=O)NCCC`, the GI50 in the assay on A549 was 36.6 µM (inactive); in the assay on ACHN, 28.8 µM (inactive); in the assay on CAKI-1 it was 35.5 µM (inactive); with CCRF-CEM, 18.5 µM (inactive); in the assay on HCC 2998, 18.2 µM (inactive); in the assay with HL-60, 13.9 µM (inactive). Moreover, the GI50 in the assay on HOP-92 was 11.6 µM (inactive); in the assay with K562, 29.9 µM (inactive); in the assay with KM-20L2 it was 22.8 µM (inactive); with LOX IMVI, 18.2 µM (inactive); with MOLT-4 it was 17.2 µM (inactive); in the assay with OVCAR-3, 33.3 µM (inactive). Besides, the GI50 in the assay with OVCAR-4 is 21.6 µM (inactive); in the assay with OVCAR-5 it was 24.4 µM (inactive); with OVCAR-8, 30.5 µM (inactive); with RXF 393, 15.9 µM (inactive); in the assay with SF-295, 38.5 µM (inactive); in the assay with SK-MEL-28 it was 28.8 µM (inactive). Moreover, the GI50 in the assay with UACC-62 was 38.5 µM (inactive).
Take `CCOC(=O)/C=C(\C)c1ccc(OC)cc1`: the GI50 in the assay on A549 was > 100 µM (inactive); in the assay on ACHN, 74.1 µM (inactive); with CAKI-1 it was > 100 µM (inactive); with HCC 2998, > 100 µM (inactive); with HL-60, > 100 µM (inactive); in the assay on HOP-92, > 100 µM (inactive). The GI50 with KM-20L2, in the assay on LOX IMVI, in the assay on OVCAR-4, in the assay on OVCAR-5, in the assay with OVCAR-8 and with RXF 393 was > 100 µM (inactive) each time. Moreover, the GI50 with SF-295 and in the assay with SK-MEL-28 was > 100 µM (inactive) in each case.
`Cc1c2c(cc3c1[nH]c1ccccc13)C=NCC2`: the GI50 is 15.2 µM (inactive) in the assay on A549; 11.3 µM (inactive) with CAKI-1; 7.48 µM (inactive) in the assay on CCRF-CEM; 21.5 µM (inactive) with HCC 2998; 5.78 µM (inactive) with HL-60; 31.8 µM (inactive) in the assay on HOP-62. In addition, the GI50 with HOP-92 was 3.18 µM (inactive); in the assay with K562, 6.17 µM (inactive); with KM-20L2, 9.51 µM (inactive); in the assay with LOX IMVI it was 8.09 µM (inactive); with MOLT-4 it was 7.69 µM (inactive); in the assay with OVCAR-3, 1.26 µM (inactive). The GI50 in the assay on OVCAR-4 is 16.6 µM (inactive); in the assay on OVCAR-5, 22 µM (inactive); in the assay with OVCAR-8, 10.2 µM (inactive); in the assay on RXF 393, 6.89 µM (inactive); in the assay with SF-295, 11.2 µM (inactive); in the assay with SK-MEL-28, 7.36 µM (inactive). Moreover, in the assay with UACC-62, the GI50 was 8.49 µM (inactive).
